Consider 23 compounds from patent US20240150365A1 (Hotspot Therapeutics, Inc., priority 2022, published 2024).

For one assay, the target named is T1, MALT1 (Homo sapiens, UniProt Q9UDY8).
T1 construct: Avi-tagged FL MALT-1 (Pharmaron, stored at −70° C.); Avi tag
T1 sequence (Q9UDY8 1-824): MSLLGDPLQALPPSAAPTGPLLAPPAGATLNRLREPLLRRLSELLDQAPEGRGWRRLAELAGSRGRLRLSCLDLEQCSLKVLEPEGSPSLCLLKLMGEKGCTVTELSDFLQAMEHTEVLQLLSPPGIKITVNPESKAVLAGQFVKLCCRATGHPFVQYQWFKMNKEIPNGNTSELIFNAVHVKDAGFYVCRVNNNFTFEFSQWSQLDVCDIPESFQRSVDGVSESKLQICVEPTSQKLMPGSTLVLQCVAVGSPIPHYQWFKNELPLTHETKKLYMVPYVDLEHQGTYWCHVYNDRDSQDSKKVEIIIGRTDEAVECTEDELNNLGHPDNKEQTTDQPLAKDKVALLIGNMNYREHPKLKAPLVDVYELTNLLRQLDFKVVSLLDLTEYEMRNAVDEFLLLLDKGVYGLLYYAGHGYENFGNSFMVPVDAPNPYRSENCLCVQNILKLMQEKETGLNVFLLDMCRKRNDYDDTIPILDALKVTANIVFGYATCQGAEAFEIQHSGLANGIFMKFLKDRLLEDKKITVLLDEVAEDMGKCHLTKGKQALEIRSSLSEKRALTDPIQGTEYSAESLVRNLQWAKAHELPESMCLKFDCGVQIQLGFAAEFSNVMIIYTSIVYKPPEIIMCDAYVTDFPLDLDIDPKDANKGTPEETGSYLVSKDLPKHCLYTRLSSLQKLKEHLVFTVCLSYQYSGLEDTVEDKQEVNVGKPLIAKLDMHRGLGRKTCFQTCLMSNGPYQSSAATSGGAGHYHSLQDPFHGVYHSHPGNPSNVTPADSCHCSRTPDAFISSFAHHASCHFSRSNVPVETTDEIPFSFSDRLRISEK
In words: MALT-1 Fluorogenic Peptide Cleavage Assay (MALT1 inhibition assay). Type of assay: biochemical. To be noted: Avi-tagged FL MALT-1, Ac-LRSR-AMC peptide substrate, 30 min pre-incubation, 90 min reaction. On the procedure: Inhibition of MALT1 activity by the presence of small molecules was evaluated using MALT-1 Fluorogenic Peptide Cleavage Assay. The assay utilizes a quenched AMC-labelled peptide that contains the MALT-1 recognition sequence and cleavage site (LRSR). MALT-1 mediated cleavage of the peptide relieves the quenching and leads to an increase in fluorescence at excitation (342 nm) and emission (441 nm). The following reagents were obtained commercially and used to prepare standard reagent formulations as further described below: […] The standard reagent formulations used in this assay were prepared and stored as follows. A 1.1 M solution of sodium citrate (161.3 g, 500 mL) was prepared and stored at room temperature. A 10% (w/v) CHAPS solution (2.0 g, 20 mL) was prepared and stored at 4° C. A 500 mM HEPES solution having pH of 6.89 was prepared from 200 mL of a 1 M HEPES solution having a pH of 7.5 using concentrated hydrochloric acid and brought to a final volume of 400 mL with […]® H2O. The substrate, 10 mM Ac-LRSR-AMC Peptide, was prepared (10 mg, 1.370 mL DMSO) and stored at -20° C. Compounds were plated to provide a 2% DMSO final concentration using a ProxiPlate-384 Plus F Black 384-shallow well microplate. The assay-ready plates were equilibrated to room temperature. […] DMSO was added only when compound plates had not been DMSO-backfilled to 2%. MALT-1 was thawed and kept on ice. Peptide substrate was thawed on the bench under ambient conditions. A MALT-1 enzyme working stock was prepared from Avi-tagged FL MALT-1 (40 nM in a prepared reagent volume of 16.5 μL) and the reaction buffer (13.0 mL). MALT1 working stock (5 μL) was added to each well of the microplate. MALT-1 was pre-incubated with compounds for 30 minutes at room temperature. […] The plates were covered and incubated on the bench at room temperature for 90 minutes. Fluorescence intensity was determined using a CLARIOstar microplate reader (BMG LABTECH) using the optimised AMC mode. Before taking readings, a 70% gain was applied on the neutral control well. Compound data were normalised to % Inhibition and used to plot sigmoidal concentration response curves to yield various parameters including IC50. […] Compounds in which an IC50 was not measured are designated as “N/A”.

A further assay concerns NF-kB. As to the kind of experiment: NF-kB reporter assay in Jurkat cells stimulated with aCD3/aCD28/PMA. The conditions noted are these: Homo sapiens, Jurkat, Jurkat cells, 1 hr compound incubation, aCD3/aCD28/PMA stimulation 4 hr, One-Glo readout; read-out: NF-kB Reporter Assay IC50. Type of assay: cell-based. On the procedure:
Jurkat cells were maintained in complete RPMI 1640 media supplemented with 10% FBS. Prior to the assay, 120 nL of the serial diluted compound was added in each well of 384-well flat bottom white plate (Corning #3570) by using liquid handler Echo550. Jurkat cells were harvested by centrifugation at 120 g for 10 min and resuspended in fresh RPMI 1640 media without serum. 30 μL of cells (25,000 cells) were seeded in each well of 384-well plate containing compound. After 1 hr incubation at 37° C. in a 5% CO2 incubator, 10 μL of diluted aCD3/aCD28/PMA (final concentration at 5 μg/mL, 5 μg/mL and 0.03 μg/mL, respectively) in RPMI 1640 without serum were added to each well. After incubation at 37° C. in 5% CO2 for 4 hr, 30 μL of One-Glo reagent (Promega #E6120) was added into each well. The plate was left at room temperature for 5 min and the signal was measured on EnVision (PerkinElmer).
Compounds in which an IC50 was not measured are designated as “N/A”.
(In general: Reporter assays use an easily measured gene product as a stand-in for the process of interest.)

As a reminder, the IC50 is the point on the concentration scale where inhibition reaches its midpoint. For `CCc1ccc2cnn(C)c2c1NS(=O)(=O)c1ccc(-c2cc(C(F)(F)F)n[nH]2)nc1` [Example I-1], the IC50 on MALT1 and with NF-kB was less than 400 nM in each case. Turning to `CCc1ccc2cnn(C)c2c1NS(=O)(=O)c1ccc(-n2cc(C(F)(F)F)cn2)nc1` [Example I-2], the 50% inhibitory concentration (IC50) against MALT1 and in the assay on NF-kB was less than 400 nM each time. `CCc1ccc2cnn(C)c2c1NS(=O)(=O)c1ccc(-n2cc(C(F)(F)F)c(C(=O)N(C)C)n2)nc1` [Example I-4] gave an IC50 against MALT1 of 400 to 1000 nM. The same measure, in the same setting: then `CCc1ccc2cnn(C)c2c1NS(=O)(=O)c1ccc(-n2cc(C(F)(F)F)c(C(=O)N3CC(O)C3)n2)nc1` [Example I-5], with less than 400 nM.

On to `CCc1ccc2cnn(C)c2c1N(C)S(=O)(=O)c1ccc(-n2cc(C(F)(F)F)cn2)nc1` [Example I-6], for which the IC50 against MALT1 and in the assay with NF-kB was less than 400 nM in each case. As to `CCc1ccc2cnn(C)c2c1NS(=O)(=O)c1ccc(-n2cc(C(F)(F)F)cn2)cn1` [Example I-7, N-(6-Ethyl-1-Methyl-1H-Indazol-7-yl)-5-(4-(Trifluoromethyl)-1H-Pyrazol-1-yl)Pyridine-2-Sulfonamide], the IC50 against MALT1 and with NF-kB was 1000 to 2500 nM in each case. `CCc1ccc2cnn(C)c2c1NS(=O)(=O)c1cnc(-n2cc(C(F)(F)F)cn2)nc1` [Example I-8, N-(6-Ethyl-1-Methyl-1H-Indazol-7-yl)-2-(4-(Trifluoromethyl)-1H-Pyrazol-1-yl)Pyrimidine-5-Sulfonamide]: the IC50 against MALT1 and with NF-kB was greater than 2500 nM each time. Regarding `CCc1ccc2cnn(C)c2c1NS(=O)(=O)c1ccc(-n2cc(C(F)(F)F)cn2)nn1` [Example I-9, N-(6-Ethyl-1-Methyl-1H-Indazol-7-yl)-6-(4-(Trifluoromethyl)-1H-Pyrazol-1-yl)Pyridazine-3-Sulfonamide], the IC50 against MALT1 and in the assay with NF-kB was greater than 2500 nM throughout.

`COc1ccc2cnn(C)c2c1NS(=O)(=O)c1ccc(-n2cc(C(F)(F)F)cn2)nc1` [Example I-10, N-(6-Methoxy-1-Methylindazol-7-yl)-6-[4-(Trifluoromethyl) Pyrazol-1-yl]pyridine-3-Sulfonamide]: the IC50 at MALT1 and in the assay on NF-kB was less than 400 nM each time. With `COc1ccc2cnn(C)c2c1NS(=O)(=O)c1ccc(-n2cc(C3CC3)cn2)nc1` [Example I-11, 6-(4-Cyclopropyl-1H-Pyrazol-1-yl)-N-(6-Methoxy-1-Methyl-1H-Indazol-7-yl)Pyridine-3-Sulfonamide], the IC50 at MALT1 and in the assay with NF-kB was less than 400 nM throughout. In the case of `COc1ccc2cnn(C)c2c1NS(=O)(=O)c1ccc(-n2cc(Cl)cn2)nc1` [Example I-13, 6-(4-Chloro-1H-Pyrazol-1-yl)-N-(6-Methoxy-1-Methyl-1H-Indazol-7-yl)Pyridine-3-Sulfonamide], the IC50 at MALT1 and in the assay on NF-kB was less than 400 nM each time. As to `COc1ccc2cnn(C)c2c1NS(=O)(=O)c1ccc(-n2cc(C)cn2)nc1` [Example I-14, N-(6-Methoxy-1-Methyl-1H-Indazol-7-yl)-6-(4-Methyl-1H-Pyrazol-1-yl)Pyridine-3-Sulfonamide], the concentration for half-maximal inhibition (IC50) on MALT1 and with NF-kB was less than 400 nM each time. With `COc1ccc2cnn(C)c2c1NS(=O)(=O)c1ccc(-n2cccn2)nc1` [Example I-15, N-(6-Methoxy-1-Methyl-1H-Indazol-7-yl)-6-(1H-Pyrazol-1-yl) Pyridine-3-Sulfonamide], the IC50 at MALT1 was 1000 to 2500 nM; with NF-kB, less than 400 nM.

On to `COc1ccc2cnn(C)c2c1NS(=O)(=O)c1ccc(-n2ccc(C(F)(F)F)n2)nc1` [Example I-16], for which the IC50 against MALT1 and with NF-kB was less than 400 nM throughout. Take `Cn1ncc2ccc(C3CC3)c(NS(=O)(=O)c3ccc(-n4cc(Cl)cn4)nc3)c21` [Example I-17]: the IC50 against MALT1 and in the assay on NF-kB was less than 400 nM throughout. For `COc1ccc2cnn(C)c2c1NS(=O)(=O)c1ccc(-c2cc(C(F)(F)F)nn2C)nc1` [Example I-18, N-(6-Methoxy-1-Methylindazol-7-yl)-6-[2-Methyl-5-(Trifluoromethyl)Pyrazol-3-yl]pyridine-3-Sulfonamide], the IC50 on MALT1 and with NF-kB was less than 400 nM in each case. Consider `COc1ccc2cnn(C)c2c1NS(=O)(=O)c1ccc(-c2ccn(C)n2)nc1` [Example I-19, N-(6-Methoxy-1-Methylindazol-7-yl)-6-(1-Methylpyrazol-3-yl)Pyridine-3-Sulfonamide], for which the IC50 at MALT1 was greater than 2500 nM; with NF-kB, less than 400 nM. `COc1ccc2cnn(C)c2c1NS(=O)(=O)c1ccc(-c2cnn(C)c2)nc1` [Example I-20, N-(6-Methoxy-1-Methylindazol-7-yl)-6-(1-Methylpyrazol-4-yl)Pyridine-3-Sulfonamide]: the results for the 50% inhibitory concentration (IC50) at MALT1 and in the assay with NF-kB were 1000 to 2500 nM and 400 to 1000 nM, respectively. Take `COc1ccc2cnn(C)c2c1NS(=O)(=O)c1ccc(-c2cn(C)nn2)nc1` [Example I-21, N-(6-Methoxy-1-Methyl-1H-Indazol-7-yl)-6-(1-Methyl-1H-1,2,3-Triazol-4-yl)Pyridine-3-Sulfonamide]: the IC50 at MALT1 is greater than 2500 nM; in the assay with NF-kB, less than 400 nM. On to `COc1ccc2cnn(C)c2c1NS(=O)(=O)c1ccc(-c2cc(C(F)(F)F)n[nH]2)nc1` [Example I-22, N-(6-Methoxy-1-Methylindazol-7-yl)-6-[5-(Trifluoromethyl)-2H-Pyrazol-3-yl]pyridine-3-Sulfonamide], for which the half-inhibitory concentration (IC50) against MALT1 and with NF-kB was less than 400 nM throughout. The compound `CCc1ccc2cnn(C)c2c1NS(=O)(=O)c1ccc(-c2ccc(C(=O)OC)c(Cl)c2)nc1` [Example I-45, Methyl 2-Chloro-4-(5-(N-(6-Ethyl-1-Methyl-1H-Indazol-7-yl)Sulfamoyl)Pyridin-2-yl)Benzoate] registered a half-inhibitory concentration (IC50) at MALT1 of less than 400 nM.

Compound `CCc1ccc2cnn(C)c2c1NS(=O)(=O)c1ccc(-c2ccnc(C(F)(F)F)c2)nc1` [Example I-46, N-(6-Ethyl-1-Methyl-1H-Indazol-7-yl)-2′-(Trifluoromethyl)-[2,4′-Bipyridine]-5-Sulfonamide] came in with an IC50 against MALT1 of less than 400 nM. For `CCc1ccc2cnn(C)c2c1NS(=O)(=O)c1ccc(-c2ccncc2)nc1` [Example I-47, N-(6-Ethyl-1-Methyl-1H-Indazol-7-yl)-[2,4′-Bipyridine]-5-Sulfonamide], on MALT1, the IC50 was 1000 to 2500 nM.
